Data published in patent US8314130B2, “Compounds inclunding substituted pyridines for inflammation and immune-related uses” (Synta Pharmaceuticals Corp., priority 2008, dated 2012).

Experiments:
CRACM1/STIM1 = target: T1, CRACM1/STIM1 (Homo sapiens, UniProt Q96D31); experiment: ICRAC current inhibition in CRACM1/STIM1-CHOK1 cells (patch clamp); format: cell-based; details: activity class; for inhibition at 0.5 µM: 500 nM
T1 construct: Full length human Stim1, CracM1, CracM2 and CracM3 cDNA
Protocol: Manual patch clamp experiments are conducted in the tight-seal whole-cell configuration at room temperature (21-25° C.). Patch pipettes are fashioned from borosilicate glass capillary tubes and have resistances between 2-4 MO after filling with standard intracellular solution. High resolution current recordings are acquired with a computer-based patch clamp amplifier system (EPC-10, HEKA, Lambrecht, Germany). All voltages are corrected for a liquid junction potential of 10 mV between external and internal solutions with glutamate as the intracellular anion. Currents are filtered at 2.9 kHz and digitized at 10 μs intervals. Capacitive currents and series resistance are determined and corrected before each voltage ramp using the automatic capacitance compensation of the EPC-10.
Automated patch clamp experiments are conducted with the QPatch 16 (Sophion Bioscience, Ballerup, Denmark) at room temperature (21-25° C.). Immediately following the establishment of giga-seal whole-cell configuration, the cells membrane potential is clamped at 0 mV. Voltage ramps of 50 ms duration spanning the voltage range of −100 to +100 mV are then stimulated at a rate of 0.33 Hz. Currents are filtered at 2.9 kHz and digitized at 200 μs intervals. Capacitive currents and series resistance are determined and corrected before each voltage ramp using the automatic capacitance compensation.
In general, a whole cell patch clamp method is used to examine the effects of a compound of the invention on a channel(s) that mediates ICRAC. In such experiments, a baseline ICRAC measurement is established within the first 70 voltage ramps, or 140 seconds, for a patched cell. Then the cells are perfused with the compound to be tested and the effect of the compound on ICRAC is measured for at least an additional 440 to 500 seconds. A compound that modulates ICRAC (e.g., inhibits) is a compound that is useful in the invention for modulating CRAC ion channel activity.
ICRAC currents are measured using 50 msec voltage ramps between −100 mV to +100 mV. The voltage ramps are stimulated every 2 seconds for the first 70 sweeps, then every 5 seconds for the remainder of the experiment. The membrane potential is held at 0 mV between the test ramps. In a typical experiment, the peak inward currents will develop within 50-100 seconds. Once the ICRAC current is stabilized, the cells are perfused with a test compound in the extracellular solution for at least an additional 500 seconds.
Off-line analysis with the Heka PatchMaster software is used to separate the ICRAC membrane current from the cells basal background currents. In a typical recording, InsP3 stimulated ICRAC currents begin to develop in 6 to 12 seconds after whole cell is established. Therefore, the first 1-4 voltage ramps represent the basal membrane currents in the absence of ICRAC and the average value is subtracted from all subsequent traces. The current value at −80 mV for each ramp trace is then measured and plotted against time. The resulting current versus time data is exported into a Microsoft Excel spreadsheet. The % ICRAC inhibition in each cell is calculated by comparing the amount of current just prior to the compound perfusion to the amount of current after the cells has been perfused with the compound for 440-500 seconds. The IC50 value and Hill coefficient for each compound is estimated by fitting all the individual data points to a single-site Hill equation.
TREx™-CHO cells were transfected with human Stim1 (recombinant DNA in pcDNA4/TO/myc-His™ A with a myc epitope tag in the N-terminal) and either CracM1, CracM2 or CracM3 (recombinant DNA in pcDNA 3.1 with a HA epitope tag in the N-terminal). Stably expressing cells were selected by growing the transfected cells in antibiotics for two to three weeks. Individual cell clones were isolated via serial dilution. […]

IL-2 = experiment: Inhibition of IL-2 production in PHA-activated Jurkat cells (1% FBS), ELISA; format: cell-based; details: Homo sapiens, activity class, read-out: IL-2 current inhibition Jurkat/PHA/1% FBS IC50
Protocol: Jurkat cells were placed in a 96 well plate (0.5 million cells per well in 1% FBS medium), and then a test compound of this invention was added at different concentrations. After 10 minutes, the cells were activated with PHA (final concentration 2.5 μg/mL) and incubated for 20 hours at 37° C. under 5% CO2. The final volume was 200 Following incubation, the cells were centrifuged, and the supernatants collected and stored at −70° C. prior to assaying for IL-2 production. A commercial ELISA kit (IL-2 Eli-pair, Diaclone Research, Besancon, France) was used to detect production of IL-2, from which dose response curves were obtained. The IC50 value was calculated as the concentration at which 50% of maximum IL-2 production after stimulation was inhibited versus a non-stimulation control.

T1 sequence (Q96D31 whole entry): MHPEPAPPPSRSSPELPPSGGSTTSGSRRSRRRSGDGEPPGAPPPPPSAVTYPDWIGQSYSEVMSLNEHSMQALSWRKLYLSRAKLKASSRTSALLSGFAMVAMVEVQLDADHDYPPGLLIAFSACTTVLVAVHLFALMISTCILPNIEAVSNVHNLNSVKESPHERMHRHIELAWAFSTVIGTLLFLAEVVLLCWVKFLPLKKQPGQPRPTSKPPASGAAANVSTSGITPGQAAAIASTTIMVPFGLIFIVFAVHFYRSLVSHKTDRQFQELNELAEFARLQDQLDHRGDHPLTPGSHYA

Structure (SMILES) | inhibition at 0.5 µM (CRACM1/STIM1) [%] | IC50 (IL-2) [nM] | ICRAC current inhibition CRACM1/STIM1-CHOK1 % Inhibition at 500 nM (CRACM1/STIM1)
CC(C)c1sc(-c2cccnc2)cc1-c1ccc(NC(=O)c2c(F)cccc2F)nc1 [Compound 11, 2,6-difluoro-N-(5-(2-isopropyl-5-(pyridin-3-yl)thiophen-3-yl)pyridin-2-yl)-benzamide] | < 50 | < 50 | –
C=C(C)c1sc(-c2cccnc2)cc1-c1ccc(NC(=O)c2c(F)cccc2F)cc1 [Compound 14, 2,6-difluoro-N-(4-(2-(prop-1-en-2-yl)-5-(pyridin-3-yl)thiophen-3-yl)phenyl)benzamide] | < 50 | < 50 | –
CC(C)c1sc(-c2cccnc2)cc1-c1ccc(NC(=O)c2c(F)cccc2F)cc1 [Compound 15, 2,6-difluoro-N-(4-(2-isopropyl-5-(pyridin-3-yl)thiophen-3-yl)phenyl)benzamide] | 50 to 70 | < 50 | –
Cc1sc(-c2cccnc2)nc1-c1ccc(NC(=O)c2c(F)cccc2F)cc1 [F] | 50 to 70 | < 50 | –
Cc1sc(-c2cnn(C)c2)nc1-c1ccc(NC(=O)c2c(F)cccc2F)cc1 [H] | 70 to 100 | < 50 | –
Cc1sc(C(=O)c2cccnc2)cc1-c1ccc(NC(=O)c2c(F)cccc2F)cc1 [O] | – | < 50 | High
